Experimental data taken from patent US20250289789A1, “REVERSIBLE LYSINE COVALENT MODIFIERS OF CDK2 AND USES THEREOF” (Terremoto Biosciences, Inc., priority 2023, published 2025).
Like-named read-outs stand apart in the source and are kept apart here.

Tests used:
Assay type in all cases: cell-based
[1] = molecular target: T1, CDK1-NanoLuc fusion with CCNB1 in 293T or 293 cells (Homo sapiens, UniProt P06493); assay: NanoBRET Target Engagement (TE) Intracellular Kinase Assay, CDK1/CCNB1; details: NanoBRET TE intracellular kinase assay, 2-hour incubation, read-out: NanoBRET-CDK1/B1 IC50
T1 construct: host or cells: 293T (ATCC CRL-3216) or 293 (ATCC CRL-1573)
Procedure: Inhibitory effects of compounds were measured in NanoBRET TE Intracellular Kinase Assay. 293T (ATCC; CRL-3216) or 293 (ATCC; CRL-1573) cell lines were maintained in 90% DMEM and 10% fetal bovine serum at 37° C., 5% CO2, and 95% relative humidity. Cells were trypsinized and resuspended in assay media (99% Opti-MEM I Reduced Serum Medium, no phenol red, and 1% fetal bovine serum). Cells were co-transfected with 1 μg/mL of CDK-NanoLuc Fusion Vector (Promega; NV2701 for CDK1, NV2781 for CDK2, NV2811 for CDK4, NV2841 for CDK6) and 1 μg/mL of the corresponding Cyclin Expression Vector (Promega; NV2601 for CCNB1, NV2641 for CCNE1, NV2621 for CCND1, NV2631 for CCND3) using FuGENE HD Transfection Reagent (Promega; E2311). 40 uL/well of cells with transfection mixture were seeded in 384-well plates at 1.25×10^5 to 2×10^5 cells/mL and incubated for 24 hours at 37° C., 5% CO2, and 95% relative humidity. On the next day, 100 nL of 100 μM NanoBRET Tracer K-10 (Promega; N2640) and 40 nL of 1000× test compounds prepared in DMSO were added to the cells in each well of 384-well plates for a 2-hour incubation at 37° C., 5% CO2, and 95% relative humidity. 20 uL/well of 3× Intracellular TE Nano-Glo Substrate/Inhibitor (Promega; N2162) were added to 384-well plates and incubated for 3 minutes at room temperature. NanoBRET signals (donor emission wavelength at 450 nm, acceptor emission wavelength at 610 nm) were measured using Envision plate reader (PerkinElmer). NanoBRET ratio was calculated by: BRET Ratio=raw signal for acceptor/raw signal for donor. Dose response curve normalized to DMSO control was plotted using four-parameter logistic model for IC50 calculation.

[2] = molecular target: T2, CDK2-NanoLuc fusion with CCNE1 in 293T or 293 cells (Homo sapiens, UniProt P24941); assay: NanoBRET Target Engagement (TE) Intracellular Kinase Assay, CDK2/CCNE1; details: NanoBRET TE intracellular kinase assay, 2-hour incubation, read-out: NanoBRET-CDK2/E1 IC50
T2 construct: host or cells: 293T (ATCC CRL-3216) or 293 (ATCC CRL-1573)

[3] = molecular target: T3, CDK4-NanoLuc fusion with CCND1 in 293T or 293 cells (Homo sapiens, UniProt P11802); assay: NanoBRET Target Engagement (TE) Intracellular Kinase Assay, CDK4/CCND1; details: NanoBRET TE intracellular kinase assay, 2-hour incubation, read-out: NanoBRET-CDK4/D1 IC50
T3 construct: host or cells: 293T (ATCC CRL-3216) or 293 (ATCC CRL-1573)

[4] = tested on: Phospho-Rb Ser807/811 in OVCAR3 cells; assay: OVCAR3 Phospho-Rb Ser807/811 HTRF assay; details: Homo sapiens, OVCAR-3, 1 h, read-out: pRb-OVCAR3 IC50
Procedure: Cells were trypsinized and resuspended in 1 mM hydroxyurea (Sigma; H8627), 90% RPMI and 10% fetal bovine serum. […] Dose response curve normalized to DMSO control was plotted using four-parameter logistic model for IC50 calculation.

[5] = OVCAR3 cells, Phospho-Rb Ser807/811 HTRF, 1 hour incubation

T1 sequence (P06493 whole entry, the tested form may be a part): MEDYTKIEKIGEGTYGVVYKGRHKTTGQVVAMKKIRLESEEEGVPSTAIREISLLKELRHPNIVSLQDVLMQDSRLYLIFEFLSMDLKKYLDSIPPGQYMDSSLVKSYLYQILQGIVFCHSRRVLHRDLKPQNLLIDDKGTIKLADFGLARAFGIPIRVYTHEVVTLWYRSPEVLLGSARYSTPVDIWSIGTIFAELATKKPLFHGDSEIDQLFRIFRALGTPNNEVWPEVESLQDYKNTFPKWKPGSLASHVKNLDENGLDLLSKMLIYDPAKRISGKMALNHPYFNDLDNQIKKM
T1 sequence (P14635 whole entry partner, the tested form may be a part): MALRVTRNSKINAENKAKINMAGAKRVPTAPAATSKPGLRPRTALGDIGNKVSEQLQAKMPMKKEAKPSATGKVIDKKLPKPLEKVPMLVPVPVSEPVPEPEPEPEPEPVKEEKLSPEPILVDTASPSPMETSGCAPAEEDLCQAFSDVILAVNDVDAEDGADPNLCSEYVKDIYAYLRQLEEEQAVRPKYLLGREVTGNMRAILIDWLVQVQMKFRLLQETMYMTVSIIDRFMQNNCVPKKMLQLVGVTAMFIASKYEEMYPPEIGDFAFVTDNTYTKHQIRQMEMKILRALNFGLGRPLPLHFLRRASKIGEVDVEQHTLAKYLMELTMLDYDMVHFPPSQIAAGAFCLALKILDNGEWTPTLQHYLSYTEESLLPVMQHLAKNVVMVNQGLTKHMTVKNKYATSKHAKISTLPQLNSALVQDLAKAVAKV
T3 sequence (P11802 whole entry, the tested form may be a part): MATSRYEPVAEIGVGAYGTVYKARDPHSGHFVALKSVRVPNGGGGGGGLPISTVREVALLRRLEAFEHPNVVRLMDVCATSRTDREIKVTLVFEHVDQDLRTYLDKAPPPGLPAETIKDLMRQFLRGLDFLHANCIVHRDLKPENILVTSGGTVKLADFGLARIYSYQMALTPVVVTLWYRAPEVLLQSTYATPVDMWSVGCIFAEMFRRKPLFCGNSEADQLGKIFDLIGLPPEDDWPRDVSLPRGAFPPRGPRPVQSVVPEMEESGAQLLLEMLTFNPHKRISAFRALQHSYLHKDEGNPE
T3 sequence (P24385 whole entry partner, the tested form may be a part): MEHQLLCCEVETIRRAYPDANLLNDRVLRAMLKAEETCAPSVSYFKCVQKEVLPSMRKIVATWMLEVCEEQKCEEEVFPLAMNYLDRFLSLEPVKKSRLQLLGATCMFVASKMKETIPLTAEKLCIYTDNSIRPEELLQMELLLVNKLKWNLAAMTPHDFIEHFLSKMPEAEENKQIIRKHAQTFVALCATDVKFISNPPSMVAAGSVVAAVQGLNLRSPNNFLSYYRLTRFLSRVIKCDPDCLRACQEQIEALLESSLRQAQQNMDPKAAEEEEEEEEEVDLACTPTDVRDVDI

| Structure (SMILES) | IC50 [1] [nM] | IC50 [2] [nM] | IC50 [3] [µM] | IC50 [4, 5] [nM] | IC50 [4] [nM] |
| --- | --- | --- | --- | --- | --- |
| CC(C)NC(=O)O[C@@H]1CC[C@H](c2cc(NC(=O)c3cc(CCc4cccc(O)c4C=O)nn3C)n[nH]2)C1 [Compound 30, (1R,3S)-3-(5-{5-[2-(2-formyl-3-hydroxyphenyl)ethyl]-2-methylpyrazole-3-amido}-2H-pyrazol-3-yl)cyclopentyl N-isopropylcarbamate] | 491 | 17.8 | 3.16 | 2740 | – |
| CC(C)NC(=O)O[C@@H]1CC[C@H](c2cc(NC(=O)c3cc(-c4cnccc4C=O)nn3C)n[nH]2)C1 [Compound 44, (1R,3S)-3-(3-(3-(4-formylpyridin-3-yl)-1-methyl-1H-pyrazole-5-carboxamido)-1H-pyrazol-5-yl)cyclopentyl isopropylcarbamate; trifluoroacetic acid] | 168 | 6.37 | 1.55 | 485 | – |
| CC(C)NC(=O)O[C@@H]1CC[C@H](c2cc(NC(=O)N3CC=C(c4cccc(O)c4C=O)C3)n[nH]2)C1 [Compound 78, (1R,3S)-3-(3-(3-(2-formyl-3-hydroxyphenyl)-2,5-dihydro-1H-pyrrole-1-carboxamido)-1H-pyrazol-5-yl)cyclopentyl isopropylcarbamate] | 142 | 16.7 | > 10 | 1190 | – |
| COc1cc(O)c(C=O)c(-n2cc(CC(=O)Nc3cc([C@H]4CC[C@@H](OC(=O)NC(C)C)C4)[nH]n3)cn2)c1 [Compound 79, (1R,3S)-3-(5-{2-[1-(2-formyl-3-hydroxy-5-methoxyphenyl)pyrazol-4-yl]acetamido}-2H-pyrazol-3-yl) cyclopentyl N-isopropylcarbamate] | 47 | 14.2 | 0.727 | – | 505 |
| CC(C)NC(=O)O[C@@H]1CC[C@H](c2cc(Nc3cc(OCc4cccc(O)c4C=O)ccn3)n[nH]2)C1 [Compound 25, (1R,3S)-3-[5-({4-[(2-formyl-3-hydroxyphenyl)methoxy]pyridine-2-yl}amino)-2H-pyrazol-3-yl]cyclopentyl N-isopropylcarbamate] | 299 | 9.94 | 1.21 | 1330 | – |
| CC(C)NC(=O)O[C@@H]1CC[C@H](c2cc(NC(=O)COc3cc(-n4cccn4)cc(O)c3C=O)n[nH]2)C1 [Compound 257] | 703 | 10.5 | > 10 | 2490 | – |
| CC(C)NC(=O)O[C@@H]1CC[C@H](c2cc(NC(=O)COc3cc(C#N)cc(O)c3C=O)n[nH]2)C1 [Compound 47, 1R,3S)-3-(3-(2-(5-cyano-2-formyl-3-hydroxyphenoxy)acetamido)-1H-pyrazol-5-yl)cyclopentyl isopropylcarbamate] | 224 | 98.9 | 9.43 | 1170 | – |
| CCCNC(=O)O[C@@H]1CC[C@H](c2cc(NC(=O)COc3cc(OC)cc(O)c3C=O)n[nH]2)C1 [Compound 221] | 8.56 | 1.71 | 5.25 | 24.1 | – |
| CC(C)NC(=O)O[C@@H]1CC[C@H](c2cc(NC(=O)COc3cccc(Cl)c3C=O)n[nH]2)C1 [Compound 97, (1R,3S)-3-{5-[2-(3-chloro-2-formylphenoxy)acetamido]-2H-pyrazol-3-yl}cyclopentyl N-isopropylcarbamate] | 1140 | 8.75 | 9.44 | 3020 | – |
| CC(C)NC(=O)O[C@@H]1CC[C@H](c2cc(NC(=O)C3CCN(c4cccc(O)c4C=O)C3)n[nH]2)C1 (stereo partly drawn) [Compound 93, (1R,3S)-3-{5-[1-(2-formyl-3-hydroxyphenyl)pyrrolidine-3-amido]-2H-pyrazol-3-yl}cyclopentyl N-isopropylcarbamate] | 169 | 8.52 | 2.28 | 391 | – |
